From patent US10765114B2, “4-amino-6-(pyridyl and 2-substitutedphenyl)-picolinates and 6-amino-2-(pyridyl and 2-substitutedphenyl)-pyrimidine-4-carboxylates and their use as herbicides” (Dow AgroSciences LLC, priority 2013, dated 2020)

Test system: ALOMY (blackgrass)
Test: Post-Emergent Test III (Wheat and Barley)
Assay type: in vivo, Alopecurus myosuroides
Conditions: Alopecurus myosuroides, post-emergence, 504 h; 35 g ai/ha, postemergence; read-out: Visual Growth Reduction (%) 21 Days After Application, ALOMY
Procedure: (§1) Seeds of the desired test plant species were planted in Sun Gro MetroMix® 306 planting mixture, which typically has a pH of 6.0 to 6.8 and an organic matter content of about 30 percent, in plastic pots with a surface area of 103.2 square centimeters (cm^2). When required to ensure good germination and healthy plants, a fungicide treatment and/or other chemical or physical treatment was applied. The plants were grown for 7-36 days in a greenhouse with an approximate 14 h photoperiod which was maintained at about 18° C. during the day and 17° C. during the night. Nutrients and water were added on a regular basis and supplemental lighting was provided with overhead metal halide 1000-Watt lamps as necessary. The plants were employed for testing when they reached the second or third true leaf stage.
(§2) A weighed amount, determined by the highest rate to be tested, of each test compound was placed in a 25 mL glass vial and was dissolved in 4 mL of a 97:3 v/v mixture of acetone and DMSO to obtain concentrated stock solutions. […] The concentrated stock solutions obtained were diluted with 20 mL of an aqueous mixture containing acetone, water, isopropyl alcohol, DMSO, Agri-Dex crop oil concentrate, and X-77 surfactant in a 48:39:10:1.5:1.5:0.02 v/v ratio to obtain spray solutions containing the highest application rates. Additional application rates were obtained by serial dilution of 12 mL of the high rate solution into a solution containing 2 mL of 97:3 v/v mixture of acetone and DMSO and 10 mL of an aqueous mixture containing acetone, water, isopropyl alcohol, DMSO, Agri-Dex crop oil concentrate, and X-77 surfactant in a 48:39:10:1.5:1.5:0.02 v/v ratio to obtain ½×, ¼×, ⅛× and 1/16× rates of the high rate. Compound requirements are based upon a 12 mL application volume at a rate of 187 liters per hectare (L/ha). Formulated compounds were applied to the plant material with an overhead Mandel track sprayer equipped with 8002E nozzles calibrated to deliver 187 L/ha over an application area of 0.503 square meters at a spray height of 18 inches (43 cm) above the average plant canopy height. Control plants were sprayed in the same manner with the solvent blank.
(§3) The treated plants and control plants were placed in a greenhouse as described above and watered by subirrigation to prevent wash-off of the test compounds. After 21 dAYS, the condition of the test plants as compared with that of the untreated plants was determined visually and scored on a scale of 0 to 100 percent where 0 corresponds to no injury and 100 corresponds to complete kill and presented as indicated in Table A.
(§4) By applying the well-accepted probit analysis as described by J. Berkson in Journal of the American Statistical Society, 48, 565 (1953) and by D. Finney in “Probit Analysis” Cambridge University Press (1952), herbicidal injury of a specific compound at various rates can be used to calculate GR10, GR20, GR50, GR80 and GR90 values, which are defined as growth reduction factors that correspond to the effective dose of herbicide required to provide plant growth reduction (GR) of 10 percent, 20 percent, 50 percent, 80 percent and 90 percent, respectively. Probit analysis was applied to data collected from multiple dose rates of individual compounds utilizing the procedures explained in the following examples. The analysis of those dose rates is captured in the following tables.

| Structure (SMILES) | pest or weed control at 35 g/ha |
| --- | --- |
| Nc1c(Cl)c(C(=O)O)nc(-c2ccc(C(F)(F)F)nc2)c1Cl [Compound 33] | 60 to 74% |

Same assay, conditions: Alopecurus myosuroides, post-emergence, 504 h; 70 g ai/ha, postemergence; read-out: Visual Growth Reduction (%) 21 Days After Application, ALOMY

| Structure (SMILES) | pest or weed control at 70 g/ha |
| --- | --- |
| Nc1c(Cl)c(C(=O)O)nc(-c2ccc(C(F)(F)F)nc2)c1Cl [Compound 33] | 75 to 84% |

Same assay, conditions: Alopecurus myosuroides, post-emergence, 504 h; 140 g ai/ha, postemergence; read-out: Visual Growth Reduction (%) 21 Days After Application, ALOMY

| Structure (SMILES) | pest or weed control at 140 g/ha |
| --- | --- |
| Nc1c(Cl)c(C(=O)O)nc(-c2ccc(C(F)(F)F)nc2)c1Cl [Compound 33] | 85 to 94% |

Same assay, conditions: effective dose for growth reduction of 50 percent, probit analysis

| Structure (SMILES) | GR50, ALOMY |
| --- | --- |
| Nc1c(Cl)c(C(=O)O)nc(-c2ccc(C(F)(F)F)nc2)c1Cl [Compound 33] | 37 g ai/ha |

Same assay, conditions: effective dose for growth reduction of 80 percent, probit analysis

| Structure (SMILES) | GR80, ALOMY |
| --- | --- |
| Nc1c(Cl)c(C(=O)O)nc(-c2ccc(C(F)(F)F)nc2)c1Cl [Compound 33] | 72 g ai/ha |

Test system: APESV (windgrass)
Test: Post-Emergent Test III (Wheat and Barley)
Assay type: in vivo, Apera spica-venti
Conditions: Apera spica-venti, post-emergence, 504 h; 35 g ai/ha, postemergence; read-out: Visual Growth Reduction (%) 21 Days After Application, APESV
Procedure: as §1, §2, §3, §4

| Structure (SMILES) | pest or weed control at 35 g/ha |
| --- | --- |
| Nc1c(Cl)c(C(=O)O)nc(-c2ccc(C(F)(F)F)nc2)c1Cl [Compound 33] | 0 to 29% |

Same assay, conditions: Apera spica-venti, post-emergence, 504 h; 70 g ai/ha, postemergence; read-out: Visual Growth Reduction (%) 21 Days After Application, APESV

| Structure (SMILES) | pest or weed control at 70 g/ha |
| --- | --- |
| Nc1c(Cl)c(C(=O)O)nc(-c2ccc(C(F)(F)F)nc2)c1Cl [Compound 33] | 60 to 74% |

Same assay, conditions: Apera spica-venti, post-emergence, 504 h; 140 g ai/ha, postemergence; read-out: Visual Growth Reduction (%) 21 Days After Application, APESV

| Structure (SMILES) | pest or weed control at 140 g/ha |
| --- | --- |
| Nc1c(Cl)c(C(=O)O)nc(-c2ccc(C(F)(F)F)nc2)c1Cl [Compound 33] | 60 to 74% |

Same assay, conditions: effective dose for growth reduction of 50 percent, probit analysis

| Structure (SMILES) | GR50, APESV |
| --- | --- |
| Nc1c(Cl)c(C(=O)O)nc(-c2ccc(C(F)(F)F)nc2)c1Cl [Compound 33] | 70 g ai/ha |

Same assay, conditions: effective dose for growth reduction of 80 percent, probit analysis

| Structure (SMILES) | GR80, APESV |
| --- | --- |
| Nc1c(Cl)c(C(=O)O)nc(-c2ccc(C(F)(F)F)nc2)c1Cl [Compound 33] | 134 g ai/ha |

Test system: KCHSC (kochia)
Test: Post-Emergent Test III (Wheat and Barley)
Assay type: in vivo, Kochia scoparia
Conditions: Bassia scoparia, post-emergence, 504 h; 35 g ai/ha, postemergence; read-out: Visual Growth Reduction (%) 21 Days After Application, KCHSC
Procedure: as §1, §2, §3, §4

| Structure (SMILES) | pest or weed control at 35 g/ha |
| --- | --- |
| Nc1c(Cl)c(C(=O)O)nc(-c2ccc(C(F)(F)F)nc2)c1Cl [Compound 33] | 0 to 29% |

Same assay, conditions: Bassia scoparia, post-emergence, 504 h; 70 g ai/ha, postemergence; read-out: Visual Growth Reduction (%) 21 Days After Application, KCHSC

| Structure (SMILES) | pest or weed control at 70 g/ha |
| --- | --- |
| Nc1c(Cl)c(C(=O)O)nc(-c2ccc(C(F)(F)F)nc2)c1Cl [Compound 33] | 45 to 59% |

Same assay, conditions: Bassia scoparia, post-emergence, 504 h; 140 g ai/ha, postemergence; read-out: Visual Growth Reduction (%) 21 Days After Application, KCHSC

| Structure (SMILES) | pest or weed control at 140 g/ha |
| --- | --- |
| Nc1c(Cl)c(C(=O)O)nc(-c2ccc(C(F)(F)F)nc2)c1Cl [Compound 33] | 60 to 74% |

Same assay, conditions: effective dose for growth reduction of 50 percent, probit analysis

| Structure (SMILES) | GR50, KCHSC |
| --- | --- |
| Nc1c(Cl)c(C(=O)O)nc(-c2ccc(C(F)(F)F)nc2)c1Cl [Compound 33] | 95 g ai/ha |

Same assay, conditions: effective dose for growth reduction of 80 percent, probit analysis

| Structure (SMILES) | GR80, KCHSC |
| --- | --- |
| Nc1c(Cl)c(C(=O)O)nc(-c2ccc(C(F)(F)F)nc2)c1Cl [Compound 33] | >140 g ai/ha |

Test system: LOLSS
Test: Post-Emergent Test III (Wheat and Barley)
Assay type: in vivo
Conditions: effective dose for growth reduction of 50 percent, probit analysis
Procedure: as §1, §2, §3, §4

| Structure (SMILES) | GR50, LOLSS |
| --- | --- |
| Nc1c(Cl)c(C(=O)O)nc(-c2ccc(C(F)(F)F)nc2)c1Cl [Compound 33] | >140 g ai/ha |

Same assay, conditions: effective dose for growth reduction of 80 percent, probit analysis

| Structure (SMILES) | GR80, LOLSS |
| --- | --- |
| Nc1c(Cl)c(C(=O)O)nc(-c2ccc(C(F)(F)F)nc2)c1Cl [Compound 33] | >140 g ai/ha |

Same assay, conditions: post-emergence, 504 h; 35 g ai/ha, postemergence; read-out: Visual Growth Reduction (%) 21 Days After Application, LOLSS

| Structure (SMILES) | pest or weed control at 35 g/ha |
| --- | --- |
| Nc1c(Cl)c(C(=O)O)nc(-c2ccc(C(F)(F)F)nc2)c1Cl [Compound 33] | 0 to 29% |

Same assay, conditions: post-emergence, 504 h; 70 g ai/ha, postemergence; read-out: Visual Growth Reduction (%) 21 Days After Application, LOLSS

| Structure (SMILES) | pest or weed control at 70 g/ha |
| --- | --- |
| Nc1c(Cl)c(C(=O)O)nc(-c2ccc(C(F)(F)F)nc2)c1Cl [Compound 33] | 0 to 29% |

Same assay, conditions: post-emergence, 504 h; 140 g ai/ha, postemergence; read-out: Visual Growth Reduction (%) 21 Days After Application, LOLSS

| Structure (SMILES) | pest or weed control at 140 g/ha |
| --- | --- |
| Nc1c(Cl)c(C(=O)O)nc(-c2ccc(C(F)(F)F)nc2)c1Cl [Compound 33] | 30 to 44% |

Test system: TRZSS
Test: Post-Emergent Test III (Wheat and Barley)
Assay type: in vivo
Conditions: Triticum aestivum, post-emergence, 504 h; 35 g ai/ha, postemergence; read-out: Visual Growth Reduction (%) 21 Days After Application, TRZSS
Procedure: as §1, §2, §3, §4

| Structure (SMILES) | pest or weed control at 35 g/ha |
| --- | --- |
| Nc1c(Cl)c(C(=O)O)nc(-c2ccc(C(F)(F)F)nc2)c1Cl [Compound 33] | 75 to 84% |

Same assay, conditions: Triticum aestivum, post-emergence, 504 h; 70 g ai/ha, postemergence; read-out: Visual Growth Reduction (%) 21 Days After Application, TRZSS

| Structure (SMILES) | pest or weed control at 70 g/ha |
| --- | --- |
| Nc1c(Cl)c(C(=O)O)nc(-c2ccc(C(F)(F)F)nc2)c1Cl [Compound 33] | 75 to 84% |

Same assay, conditions: Triticum aestivum, post-emergence, 504 h; 140 g ai/ha, postemergence; read-out: Visual Growth Reduction (%) 21 Days After Application, TRZSS

| Structure (SMILES) | pest or weed control at 140 g/ha |
| --- | --- |
| Nc1c(Cl)c(C(=O)O)nc(-c2ccc(C(F)(F)F)nc2)c1Cl [Compound 33] | 85 to 94% |

Same assay, conditions: effective dose for growth reduction of 20 percent, probit analysis

| Structure (SMILES) | GR20, TRZSS |
| --- | --- |
| Nc1c(Cl)c(C(=O)O)nc(-c2ccc(C(F)(F)F)nc2)c1Cl [Compound 33] | 1 g ai/ha |

Test system: HORSS
Test: Post-Emergent Test III (Wheat and Barley)
Assay type: in vivo
Conditions: Hordeum vulgare, post-emergence, 504 h; 35 g ai/ha, postemergence; read-out: Visual Growth Reduction (%) 21 Days After Application, HORSS
Procedure: as §1, §2, §3, §4

| Structure (SMILES) | pest or weed control at 35 g/ha |
| --- | --- |
| Nc1c(Cl)c(C(=O)O)nc(-c2ccc(C(F)(F)F)nc2)c1Cl [Compound 33] | 75 to 84% |

Same assay, conditions: Hordeum vulgare, post-emergence, 504 h; 70 g ai/ha, postemergence; read-out: Visual Growth Reduction (%) 21 Days After Application, HORSS

| Structure (SMILES) | pest or weed control at 70 g/ha |
| --- | --- |
| Nc1c(Cl)c(C(=O)O)nc(-c2ccc(C(F)(F)F)nc2)c1Cl [Compound 33] | 85 to 94% |

Same assay, conditions: Hordeum vulgare, post-emergence, 504 h; 140 g ai/ha, postemergence; read-out: Visual Growth Reduction (%) 21 Days After Application, HORSS

| Structure (SMILES) | pest or weed control at 140 g/ha |
| --- | --- |
| Nc1c(Cl)c(C(=O)O)nc(-c2ccc(C(F)(F)F)nc2)c1Cl [Compound 33] | 85 to 94% |

Same assay, conditions: effective dose for growth reduction of 20 percent, probit analysis

| Structure (SMILES) | GR20, HORSS |
| --- | --- |
| Nc1c(Cl)c(C(=O)O)nc(-c2ccc(C(F)(F)F)nc2)c1Cl [Compound 33] | 1 g ai/ha |
